Measured values: US20140094413A1, “HEPATOCYTE GROWTH FACTOR (HGF) MIMICS AS THERAPEUTIC AGENTS” (WASHINGTON STATE UNIVERSITY, priority 2012, published 2014)
“Also recorded” adds a separate entry of the source. Where a SMILES comes first, the peptide text is derived from it. [ ]: non-standard residue; d: D form. dNle = CCCC[C@@H](N)C(=O)O; Ahx = NCCCCCC(=O)O

What was measured:
human HGF [1] = target: T1, human HGF (Homo sapiens, UniProt P14210); experiment: HGF dimerization; assay type: biochemical; settings: analogs at 10^−10 M, heparin, 30 minute incubation
T1 construct: purchased R&D Systems (Minneapolis, Minn.)
Protocol: HGF dimerization was assessed using PAGE followed by silver staining (Kawas et al., 2011). Human HGF at a concentration of 0.08 ng/μl with or without 6-AH analogs was incubated with heparin at a final concentration of 5 μg/ml. Loading buffer was then added to each sample and the mixture separated by native PAGE using gradient Criterion XT precast gels (4-12% Bis-Tris; Biorad Laboratories, Hercules, Calif.). Next the gel was silver stained for the detection of the HGF monomers and dimers. Bands were quantitated from digital images using a UVP phosphoimager (Upland, Calif.).

Met = experiment: Inhibition of HGF-dependent Met phosphorylation in HEK293 cells; assay type: cell-based, human; settings: 10 min with HGF+/− analog
Protocol: HEK293 cells were seeded in 6 well tissue culture plates and grown to 95% confluency in DMEM containing 10% FBS. The cells were serum deprived for 24 h prior to the treatment to reduce the basal levels of phospho-Met. Following serum starvation, cocktails comprised of vehicle and HGF with/without 6-AH analogs were prepared and pre-incubated for 30 min at room temperature. The cocktail was then added to the cells for 10 min to stimulate the Met receptor and downstream proteins. Cells were harvested using RIPA lysis buffer (Millipore; Billerica, Mass.) fortified with phosphatase inhibitor cocktails 1 and 2 (Sigma-Aldrich; St. Louis, Mo.). The lysate was clarified by centrifugation at 15,000 nx g for 15 min, protein concentrations were determined using the BCA total protein assay (Pierce), and then appropriate volumes of the lysates were diluted with 2× reducing Laemmli buffer and heated for ten min at 95° C. Samples containing identical amounts of protein were resolved using SDS-PAGE (Criterion, BioRad Laboratories), transferred to nitrocellulose, and blocked in Tris-buffered saline (TBS) containing 5% milk for 1 h at room temperature. The phospho-Met antibody were added to the blocking buffer at a final concentration of 1:1000 and incubated at 4° C. overnight with gentle agitation. The membranes were then washed several times with water and TBS ([…], 0.05% Tween-20), a 1:5000 dilution of horseradish-peroxidase conjugated goat anti-rabbit antiserum was added, and the membranes further incubated for 1 h at room temperature. Proteins were visualized using the Supersignal West Pico Chemiluminescent Substrate system (Pierce, Fenton, Mo.) and molecular weights determined by comparison to protein ladders (BenchMark, Invitrogen, and Kaleidoscope, BioRad). Film images were digitized and analyzed using a UVP phosphoimager.

MDCK cells [2] = experiment: HGF-dependent MDCK cell proliferation (MTT); assay type: cell-based, canine; settings: analogs at 10^−10M, HGF 10 ng/ml, 4 days
Protocol: 5000 MDCK cells were seeded into the wells of a 96 well plates in 10% FBS DMEM. To induce cellular quiescence, the cells were serum deprived for 24 h prior to initiating the treatments. Following serum starvation, 10 ng/ml HGF alone and with various concentrations of 6-AH analogs or PBS vehicle were added to the media. The cells were allowed to grow under these conditions for 4 days with a daily addition of 6-AH analogs. On the fourth day, 1 mg/ml of […] (MTT, Sigma-Aldrich) prepared in PBS was added to the cells and incubated for 4 h. Dimethyl sulfoxide diluted in a 0.01M glycine buffer was added to solubilize the cell membranes and the absorbance of reduced MTT in the buffer was quantitated at 590 nm using a plate reader (Biotek Synergy 2, Winooski, Vt.). HGF-dependent proliferation was determined by subtracting the basal proliferation (in the absence of HGF) from total proliferation rates in groups containing HGF.

MDCK cells [3] = experiment: Inhibition of HGF-dependent scattering in MDCK cells; assay type: cell-based, canine; settings: HGF 20 ng/ml, 48 h
Protocol: MDCK cells were grown to 100% confluency on the coverslips in six-well plates and washed twice with PBS. The confluent coverslips were then aseptically transferred to new six well plates containing 900 μl serum free DMEM. Norleual, Hinge peptide, and/or HGF (20 ng/ml) were added to appropriate wells. Control wells received PBS vehicle. Plates were incubated at 37° C. with 5% CO2 for 48 h. Media was removed and cells were fixed with methanol. Cells were stained with Diff-Quik Wright-Giemsa (Dade-Behring, Newark, Del.) and digital images were taken. Coverslips were removed with forceps and more digital images were captured. Pixel quantification of images was achieved using Image J and statistics were performed using Prism 5 and InStat v.3.05 (GraphPad; San Diego, Calif.).

human HGF [4] = target: T1, human HGF; experiment: HGF binding, competition with 3H-Hinge; settings: 1.25 ng HGF, 40 min at 37° C.; N=9
Protocol: The binding of 6-AH analogs to HGF was assessed by competition using a soluble binding assay. 250 μl of PBS containing human HGF (1.25 ng) were incubated with ^3H-Hinge, the central dimerization domain of HGF, in the presence of varying concentrations of 6-AH analogs between 10^−13 M to 10^−7M (half-log dilutions) for 40 min at 37° C. The incubates were then spun through Bio-Gel P6 spin columns (400 μl packed volume) for 1 min to separate free and bound ^3H-Hinge and the eluent was collected. Five milliliters of scintillation fluid was added to the eluent, which contained the HGF bound ^3H-Hinge, and was then counted using scintillation counter. Total disintegrations per minute of bound ^3H-Hinge were calculated based on machine counting efficiency. The Ki values for the binding of the peptides were determined using the Prism 5. Competition binding curves were performed in triplicate.

scopolamine treated rats = experiment: Morris water maze, scopolamine amnesia model; settings: Hinge 20 ng ICV; Dihexa 2 mg/kg orally; scopolamine 70 μg ICV
Protocol: Male Sprague-Dawley rats (Taconic derived) weighing 390-450 g were maintained with free access to water and food (Harland Tekland F6 rodent diet, Madison, Wis.) except the night prior to surgery when food was removed. Each animal was anesthetized with Ketamine hydrochloride plus Xylazine (100 and 2 mg/kg im. respectively; Phoenix Scientific; St. Joseph, Mo., and Moby; Shawnee, Kans.). […] The guide cannula measured 2.5 cm in overall length and was prepared with a heat bulge placed 2.5 mm from its beveled tip, thus acting as a stop to control the depth of penetration. Once in position, the cannula was secured to the skull with two stainless-steel screws and dental cement. Post-operatively the animals were housed individually in an American Accreditation for Laboratory Animal Care-approved vivarium maintained at 22±1° C. on a 12-h alternating light/dark cycle initiated at 06:00 h. All animals were hand gentled for 5 min per day during the 5-6 days of post-surgical recovery. Histological verification of cannula placement was accomplished by the injection of 5 μl fast-green dye via the guide cannula following the completion of behavioral testing.
A black circular platform (diameter: 12 cm; height: 24 cm) was placed 30 cm from the wall and submerged 2 cm below the water surface. The maze was operationally sectioned into four equal quadrants designated NW, NE, SW, and SE. For each rat the location of the platform was randomly assigned to one of the quadrants and remained fixed throughout the duration of training. Entry points were at the quadrant corners (i.e. N, S, E, and W) and were pseudo-randomly assigned such that each trial began at a different entry point than the preceding trial. Three of the four testing room walls were covered with extra-maze spatial cues consisting of different shapes (circles, squares, triangles) and colors. The swimming path of the animals was recorded using a computerized video tracking system (Chromotrack; San Diego Instruments, CA). […] Swim speed was determined from these values.
Each member of the treatment groups in the scopolamine studies received an icy injection of scopolamine hydrobromide (70 nmol in 2 μl aCSF over a duration of 20 s) 30 min prior to testing followed by Dihexa 10 min prior to testing. Control groups received scopolamine or aCSF 20 min prior to testing followed by aCSF 10 min prior testing. […] The rats in the aged rat study on received Dihexa of aCSF (control group). Briefly, acquisition trials were conducted on 8 consecutive days with 5 trials/day. On the first day of training the animal was placed on the platform for 30 s prior to the first trial. Trials commenced with the placement of the rat facing the wall of the maze at one of the assigned entry points. […] Once the animal located the platform it was permitted a 30 s rest period on the platform. […] The next trial commenced immediately following the rest period.
Following day 8 of acquisition training, one additional trial was conducted during which the platform was removed (probe trial). […] Total time spent within the target quadrant where the platform had been located during acquisition and the number of crossings of that quadrant was recorded.

hippocampal neurons [5] = experiment: Spinogenesis in mRFP-β-actin transfected dissociated hippocampal neurons; assay type: cell-based, rat
Protocol: (§1) Hippocampal neurons (2×10^5 cells per square cm) were cultured from P1 Sprague Dawley rats on plates coated with poly-L-lysine from Sigma (St. Louis, Mo.; molecular weight 300,000). Hippocampal neurons were maintained in Neurobasal A media from Invitrogen (Carlsbad, Calif.) supplemented with B27 from Invitrogen, 0.5 mM L-glutamine, and […] cytosine-D-arabinofuranoside from Sigma added at 2 days in vitro. Hippocampal neurons were then cultured a further 3-7 days, at which time they were either transfected or treated with various pharmacological reagents as described in (Wayman, Davare et al. 2008).
(§2) Neurons were transfected with mRFP-β-actin on day in vitro 6 (DIV6) using LipofectAMINE™ 2000 (Invitrogen) according to the manufacturer's protocol. This protocol yielded the desired 3-5% transfection efficiency thus enabling the visualization of individual neurons. Higher efficiencies obscured the dendritic arbor of individual neurons. Expression of fluorescently tagged actin allowed clear visualization of dendritic spines, as dendritic spines are enriched in actin. […] On DIV 12 the neurons were fixed (4% paraformaldehyde, 3% sucrose, 60 mM PIPES, 25 mM HEPES, 5 mM EGTA, 1 mM MgCl2, pH 7.4) for 20 min at room temperature and mounted. Slides were dried for at least 20 hours at 4° C. and fluorescent images were obtained with Slidebook 4.2 Digital Microscopy Software driving an Olympus IX81 inverted confocal microscope with a 60× oil immersion lens, NA 1.4 and resolution 0.280 μm Dendritic spine density was measured on primary and secondary dendrites at a distance of at least 150 μm from the soma. Five 50 μm long segments of dendrite from at least 10 neurons per data point were analyzed for each data point reported. Each experiment was repeated at least three times using independent culture preparations. Dendrite length was determined using the National Institutes of Health's Image J 1.41o program (NIH, Bethesda, Md.) and the neurite tracing program Neuron J (Meijering, Jacob et al. 2004) Spines were manually counted.
as §1, with “centimeter)” for “cm)”, “P1-2” for “P1”, “the text or figure legends.” for “(Wayman, Davare et al. 2008).”
as §2, with “DIV12” for “DIV 12”, “Dendrite length was determined using the National Institutes of Health's Image J 1.41o program (NIH, Bethesda, Md.) and the neurite tracing program Neuron J (Meijering, Jacob et al. 2004) Spines were manually counted.” left out

hippocampal neurons [6] = experiment: Whole-cell recordings of mEPSCs in dissociated hippocampal neurons; assay type: cell-based, rat; design: unit not given beside the values; settings: 10^−12 M (each), 5 days
rats = experiment: Morris water maze with i.c.v. Dihexa and HGF antagonist Hinge; assay type: in vivo, rat
[7] = aCSF followed by Hinge, no scopolamine

T1 sequence (P14210 32-728): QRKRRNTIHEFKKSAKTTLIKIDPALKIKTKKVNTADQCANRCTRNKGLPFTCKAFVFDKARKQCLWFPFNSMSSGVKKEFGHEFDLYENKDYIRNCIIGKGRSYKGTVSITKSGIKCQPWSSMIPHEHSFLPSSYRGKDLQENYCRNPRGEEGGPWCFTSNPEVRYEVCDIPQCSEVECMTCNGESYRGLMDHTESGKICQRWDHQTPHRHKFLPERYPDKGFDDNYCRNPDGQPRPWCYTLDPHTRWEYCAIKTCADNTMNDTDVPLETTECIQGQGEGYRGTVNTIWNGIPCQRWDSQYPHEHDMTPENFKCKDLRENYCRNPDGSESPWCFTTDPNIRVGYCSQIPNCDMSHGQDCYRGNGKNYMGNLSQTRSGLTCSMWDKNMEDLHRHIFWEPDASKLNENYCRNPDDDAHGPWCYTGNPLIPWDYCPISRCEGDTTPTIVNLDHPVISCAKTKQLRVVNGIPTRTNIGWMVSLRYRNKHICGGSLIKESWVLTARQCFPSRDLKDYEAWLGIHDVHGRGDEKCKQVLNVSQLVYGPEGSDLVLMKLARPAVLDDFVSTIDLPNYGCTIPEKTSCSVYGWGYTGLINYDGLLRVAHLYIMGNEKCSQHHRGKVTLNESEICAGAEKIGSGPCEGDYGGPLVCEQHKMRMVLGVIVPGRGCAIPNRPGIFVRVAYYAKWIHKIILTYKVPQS

Molecule	Inhibition of HGF dimerization (human HGF [1])	Inhibition of HGF dimerization (human HGF [1]; listed as Trp)	Inhibition of HGF-dependent Met phosphorylation (Met)	Inhibition of HGF-dependent MDCK cell proliferation (MDCK cells [2])	Inhibition of HGF-dependent MDCK cell scattering (MDCK cells [3])	Ki (human HGF [4])	Blockade of Dihexa's reversal of scopolamine cognitive dysfunction (scopolamine treated rats)	Inhibition of Dihexa-induced spinogenesis (hippocampal neurons [5]; Hinge 10^−12 M, Dihexa 10^−12 M)	Inhibition of HGF-induced spinogenesis (hippocampal neurons [5]; Hinge 10^−12 M, HGF 10 ng/ml)	Inhibition of Nle1-AngIV-induced spinogenesis (hippocampal neurons [5]; Hinge 10^−12 M, Nle1-AngIV 10^−12 M)	Effect on basal spinogenesis (hippocampal neurons [5]; Hinge alone, wide range of doses)	mEPSC mean frequency (hippocampal neurons [6])	Effect on learning in the water maze (rats; Hinge alone)	Mean latency to find the pedestal, day one (rats; [7])	Mean latency to find the pedestal, final day (day 8) (rats; [7])	Mean latency to find the pedestal, fourth day (rats; [7])
CCCC[C@@H](N)C(=O)N[C@@H](Cc1c[nH]c2ccccc12)C(=O)N[C@H](C(=O)NCCCCCC(N)=O)[C@@H](C)CC [D-Nle-Trp-Ile-NH—(CH2)5—CONH2] (H-[dNle]WI[Ahx]-NH2)	intermediate inhibition of dimerization	statistically different than the HGF treated group	intermediate inhibitory activity	showed inhibitory activity, albeit less than that observed with the most potent analogs	different from the HGF alone group but not different from the control group	3.37 nM										
DYIRNC (Synthetic hinge peptide) [novel HGF antagonist; peptide representing the dimerization domain (hinge region) of HGF; KDYIRN in b79]							blocked	did effectively inhibit spine formation; also recorded: inhibits Dihexa-induced spinogenesis; also recorded: inhibits Dihexa induced spinogenesis	did effectively inhibit spine formation; also recorded: inhibits HGF-induced spinogenesis; also recorded: inhibits HGF induced spinogenesis	did effectively inhibit spine formation; also recorded: inhibits Nle1-AngIV-induced spinogenesis; also recorded: inhibits Nle^1-AngIV induced spinogenesis	no effect on spinogenesis over a wide range of doses; also recorded: does not affect spinogenesis; also recorded: had no effect on basal spine levels	4.51±0.47	no effect on learning	111.1 s	46.1 s	78.3 s
